# Numbering of substitutions follows the chain as printed. Where a name gives a salt, the structure may show the parent alone.
# How the values were obtained:
# [1] = target: T1, AR (cytosol from LnCaP cells) (Homo sapiens, UniProt P10275, T878A); test: AR binding assay (3H-R1881 displacement)
# T1 sequence (P10275 1-920 T878A): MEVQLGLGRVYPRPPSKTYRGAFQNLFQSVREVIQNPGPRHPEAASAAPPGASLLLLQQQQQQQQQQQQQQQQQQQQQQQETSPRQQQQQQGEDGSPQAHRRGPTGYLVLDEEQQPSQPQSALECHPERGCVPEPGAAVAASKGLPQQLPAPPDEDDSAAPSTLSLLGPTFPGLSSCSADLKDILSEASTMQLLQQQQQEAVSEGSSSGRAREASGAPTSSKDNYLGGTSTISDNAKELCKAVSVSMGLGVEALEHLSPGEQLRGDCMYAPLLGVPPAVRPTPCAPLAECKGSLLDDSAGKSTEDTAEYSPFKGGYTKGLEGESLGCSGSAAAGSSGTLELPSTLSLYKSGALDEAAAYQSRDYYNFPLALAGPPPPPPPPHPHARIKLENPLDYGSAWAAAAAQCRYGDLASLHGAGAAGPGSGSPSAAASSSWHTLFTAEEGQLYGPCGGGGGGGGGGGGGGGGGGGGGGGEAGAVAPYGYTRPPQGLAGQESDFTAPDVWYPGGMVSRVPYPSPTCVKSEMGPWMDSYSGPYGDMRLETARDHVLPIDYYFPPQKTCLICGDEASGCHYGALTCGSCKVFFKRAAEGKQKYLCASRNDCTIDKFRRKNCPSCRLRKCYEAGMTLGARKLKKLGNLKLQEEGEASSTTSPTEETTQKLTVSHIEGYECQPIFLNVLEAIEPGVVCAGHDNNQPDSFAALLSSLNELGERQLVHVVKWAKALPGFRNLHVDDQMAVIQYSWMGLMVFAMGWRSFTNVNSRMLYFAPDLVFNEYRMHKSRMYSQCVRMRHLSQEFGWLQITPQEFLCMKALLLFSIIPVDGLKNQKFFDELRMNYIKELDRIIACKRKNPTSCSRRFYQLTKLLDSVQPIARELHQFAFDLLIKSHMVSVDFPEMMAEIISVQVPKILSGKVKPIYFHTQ
# Procedure: The plate was then centrifuged at 3000 rpm for 30 minutes at 4° C.
# 22Rv1 cells = test: Cell viability assay (CellTiterGlo); details: Homo sapiens, 22Rv1, 144 h, read-out: 22RV1 (IC50, nM)
# [2] = target: T2, full-length androgen receptor (HEK293 cells stably expressing) (Homo sapiens, UniProt P10275); test: AR antagonism assay (luciferase reporter)
# T2 sequence (P10275 1-920): T1 sequence (P10275 1-920 T878A) with A878T
# T47D cells = test: Cell viability assay (CellTiterGlo); assay type: cell-based; details: Homo sapiens, 144 h, 6 days incubation, CellTiterGlo, read-out: T47D (IC50)
# [3] = target: T3, Progesterone Receptor (PR)-LBD and coactivator peptide (Homo sapiens, UniProt P06401); test: PR coactivator antagonist assay; details: 2.5 nM PR-LBD, 10 nM progesterone-induced fluorescence response
# T3 sequence (P06401 679-913 limits assumed): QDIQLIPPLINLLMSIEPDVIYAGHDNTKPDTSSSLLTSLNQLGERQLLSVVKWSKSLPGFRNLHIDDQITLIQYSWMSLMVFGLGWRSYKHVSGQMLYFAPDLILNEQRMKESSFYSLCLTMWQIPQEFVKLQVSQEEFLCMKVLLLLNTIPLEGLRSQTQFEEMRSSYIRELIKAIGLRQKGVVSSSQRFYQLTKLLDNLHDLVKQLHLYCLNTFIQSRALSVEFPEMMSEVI
structure (smiles),measurement,setting,value
"CC[C@@]1(O)C(=O)OCc2c1cc1n(c2=O)Cc2c-1nc1cc(F)c(C)c3c1c2[C@@H](NCC1CCN(CC2CCN(C(=O)CN(C)c4ccc([C@H]5C[C@@]6(C)[C@@H](CC[C@]6(OC(C)=O)C(C)=O)[C@@H]6CCC7=CC(=O)CCC7=C65)cc4)CC2)CC1)CC3 [Compound No. 51, (8S,11R,13S,14S,17R)-17-acetyl-11-(4-((2-(4-((4-((((1S,9S)-9-ethyl-5-fluoro-9-hydroxy-4-methyl-10,13-dioxo-2,3,9,10,13,15-hexahydro-1H,12H-benzo[de]pyrano[3′,4′:6,7]indolizino[1,2-b]quinolin-1-yl)amino)methyl)piperidin-1-yl)methyl)piperidin-1-yl)-2-oxoethyl)(methyl)amino)phenyl)-13-methyl-3-oxo-2,3,6,7,8,11,12,13,14,15,16,17-dodecahydro-1H-cyclopenta[a]phenanthren-17-yl acetate]",IC50,[1],< 10 nM
same,IC50,22Rv1 cells,10 to 100 nM
same,IC50,[2],10 to 100 nM
"CC[C@@]1(O)C(=O)OCc2c1cc1n(c2=O)Cc2c-1nc1cc(F)c(C)c3c1c2[C@@H](NC(=O)COCCCCCCN(C)c1ccc([C@H]2C[C@@]4(C)[C@@H](CC[C@]4(OC(C)=O)C(C)=O)[C@@H]4CCC5=CC(=O)CCC5=C42)cc1)CC3 [Compound No. 47, (8S,11R,13S,14S,17R)-17-acetyl-11-(4-((6-(2-(((1S,9S)-9-ethyl-5-fluoro-9-hydroxy-4-methyl-10,13-dioxo-2,3,9,10,13,15-hexahydro-1H,12H-benzo[de]pyrano [3′,4′:6,7]indolizino[1,2-b]quinolin-1-yl)amino)-2-oxoethoxy)hexyl)(methyl)amino)phenyl)-13-methyl-3-oxo-2,3,6,7,8,11,12,13,14,15,16,17-dodecahydro-1H-cyclopenta[a]phenanthren-17-yl acetate]",IC50,[1],10 to 100 nM
same,IC50,T47D cells,10 to 100 nM
same,IC50,[2],10 to 100 nM
"CC[C@@]1(O)C(=O)OCc2c1cc1n(c2=O)Cc2cc3c(CN4CCN(CCCCCCN(C)c5ccc([C@H]6C[C@@]7(C)[C@@H](CC[C@]7(OC(C)=O)C(C)=O)[C@@H]7CCC8=CC(=O)CCC8=C76)cc5)CC4)c(O)ccc3nc2-1 [Compound 36, (8S,11R,13S,14S,17R)-17-acetyl-11-(4-((6-(4-(((S)-4-ethyl-4,9-dihydroxy-3,14-dioxo-3,4,12,14-tetrahydro-1H-pyrano[3′,4′:6,7]indolizino[1,2-b]quinolin-10-yl)methyl)piperazin-1-yl)hexyl)(methyl)amino)phenyl)-13-methyl-3-oxo-2,3,6,7,8,11,12,13,14,15,16,17-dodecahydro-1H-cyclopenta[a]phenanthren-17-yl acetate]",IC50,[1],10 to 100 nM
same,IC50,T47D cells,10 to 100 nM
same,IC50,[2],101 to 1000 nM
"CC[C@@]1(O)C(=O)OCc2c1cc1n(c2=O)Cc2cc3c(CN(C)C)c(OCC4CCN(C(=O)CN(C)c5ccc([C@H]6C[C@@]7(C)[C@@H](CC[C@]7(OC(C)=O)C(C)=O)[C@@H]7CCC8=CC(=O)CCC8=C76)cc5)CC4)ccc3nc2-1 [Compound No. 19, (8S,11R,13S,14S,17R)-17-Acetyl-11-(4-((2-(4-((((S)-10-((dimethylamino)methyl)-4-ethyl-4-hydroxy-3,14-dioxo-3,4,12,14-tetrahydro-1H-pyrano[3′,4′:6,7]indolizino[1,2-b]quinolin-9-yl)oxy)methyl)-piperidin-1-yl)-2-oxoethyl)(methyl)amino)phenyl)-13-methyl-3-oxo-2,3,6,7,8,11,12,13,14,15,16,17-dodeca-hydro-1H-cyclopenta[a]phenanthren-17-yl acetate]",IC50,[1],10 to 100 nM
same,IC50,T47D cells,101 to 1000 nM
same,IC50,[2],> 1000 nM
same,PR antagonism,[3],a (IC50 =< 10 nM)
"CC[C@@]1(O)C(=O)OCc2c1cc1n(c2=O)Cc2cc3c(CN4CCN(C(=O)C5CCN(c6ccc(C(=O)N[C@H]7CC[C@H](Oc8ccc(C#N)c(Cl)c8C)CC7)nn6)CC5)CC4)c(OC(=O)N4C[C@H](C)N(C)C[C@H]4C)ccc3nc2-1 [Compound 30, (S)-10-((4-(1-(6-(((1r,4r)-4-(3-Chloro-4-cyano-2-methylphenoxy)cyclohexyl)carbamoyl)-pyridazin-3-yl)piperidine-4-carbonyl)piperazin-1-yl)methyl)-4-ethyl-4-hydroxy-3,14-dioxo-3,4,12,14-tetrahydro-1H-pyrano[3′,4′:6,7]indolizino[1,2-b]quinolin-9-yl (2R,5S)-2,4,5-trimethylpiperazine-1-carboxylate Formate]",IC50,[1],< 10 nM
same,IC50,22Rv1 cells,101 to 1000 nM
same,IC50,[2],> 1000 nM
"CC[C@@]1(O)C(=O)OCc2c1cc1n(c2=O)Cc2cc3c(CN(C)C)c(OC(=O)N4CCN(CC5CCN(c6ccc(C(=O)N[C@H]7CC[C@H](Oc8ccc(C#N)c(Cl)c8C)CC7)nn6)CC5)CC4)ccc3nc2-1 [Compound 31, (S)-10-((Dimethylamino)methyl)-4-ethyl-4-hydroxy-3,14-dioxo-3,4,12,14-tetrahydro-1H-pyrano[3′,4′:6,7]indolizino[1,2-b]quinolin-9-yl 4-((1-(6-(((1r,4r)-4-(3-chloro-4-cyano-2-methylphenoxy)cyclohexyl)carbamoyl)pyridazin-3-yl)piperidin-4-yl)methyl)piperazine-1-carboxylate Formate]",IC50,[1],< 10 nM
same,IC50,22Rv1 cells,101 to 1000 nM
same,IC50,[2],> 1000 nM
"CC[C@@]1(O)C(=O)OCc2c1cc1n(c2=O)Cc2c-1nc1cc(F)c(C)c3c1c2[C@@H](N(C)C(=O)COCC1CCN(CCCCCCCN(C)c2ccc([C@H]4C[C@@]5(C)[C@@H](CC[C@]5(OC(C)=O)C(C)=O)[C@@H]5CCC6=CC(=O)CCC6=C54)cc2)CC1)CC3 [Compound 55, (8S,11R,13S,14S,17R)-17-acetyl-11-(4-((7-(4-((2-(((1S,9S)-9-ethyl-5-fluoro-9-hydroxy-4-methyl-10,13-dioxo-2,3,9,10,13,15-hexahydro-1H,12H-benzo[de]pyrano[3′,4′:6,7]indolizino[1,2-b]quinolin-1-yl)(methyl)amino)-2-oxoethoxy)methyl)piperidin-1-yl)heptyl)(methyl)amino)phenyl)-13-methyl-3-oxo-2,3,6,7,8,11,12,13,14,15,16,17-dodecahydro-1H-cyclopenta[a]phenanthren-17-yl acetate]",IC50,[1],10 to 100 nM
same,IC50,T47D cells,101 to 1000 nM
same,IC50,[2],101 to 1000 nM
